# Laboratory results published in patent publication US5876694A, “Azavesamicols” (priority 1997, dated 1999).
# What was measured:
# vesamicol receptor [1] = details: cited from earlier work
# [2] = test system: cholinergic neurotransmission; assay: In vivo anticholinergic activity in mice (spasms, respiratory distress, paralysis, death); parameters: key to Pharmacological activity in mice: LD: lethal dose; NR: no visible pharmacological reaction; +: visible anticholinergic effects; S: sluggishness and reduced locomotor activity
# Method: in vivo anticholinergic activity was evaluated in mice. Blockade of cholinergic neurotransmission (or anticholinergic activity) was manifested in a rapidly developing respiratory distress, spasms and paralysis. At lethal doses these symptoms were followed by death within 10 min. As evident in Table 3, several of the compounds tested were lethal at doses as low as 5 and 10 umol/Kg. […] All of the potent compounds belong to the 1,4 series, an observation consistent with the in vitro data discussed above.
# ^a Group of mice (n = 2) received selected doses of the compounds by
# activity: spasms, respiratory distress, paralysis. At lethal doses, death
# generally occurred within 10 min following the injection.
# vesamicol receptor [3] = biological target: T1, vesamicol receptor (Tetronarce californica, UniProt P81721); assay: Inhibition of [^3 H]vesamicol binding to highly purified synaptic vesicles (electric organ of Torpedo Californica); details: for in vitro potency (in words): relative to comparator compounds
# T1 sequence (P81721 1-515): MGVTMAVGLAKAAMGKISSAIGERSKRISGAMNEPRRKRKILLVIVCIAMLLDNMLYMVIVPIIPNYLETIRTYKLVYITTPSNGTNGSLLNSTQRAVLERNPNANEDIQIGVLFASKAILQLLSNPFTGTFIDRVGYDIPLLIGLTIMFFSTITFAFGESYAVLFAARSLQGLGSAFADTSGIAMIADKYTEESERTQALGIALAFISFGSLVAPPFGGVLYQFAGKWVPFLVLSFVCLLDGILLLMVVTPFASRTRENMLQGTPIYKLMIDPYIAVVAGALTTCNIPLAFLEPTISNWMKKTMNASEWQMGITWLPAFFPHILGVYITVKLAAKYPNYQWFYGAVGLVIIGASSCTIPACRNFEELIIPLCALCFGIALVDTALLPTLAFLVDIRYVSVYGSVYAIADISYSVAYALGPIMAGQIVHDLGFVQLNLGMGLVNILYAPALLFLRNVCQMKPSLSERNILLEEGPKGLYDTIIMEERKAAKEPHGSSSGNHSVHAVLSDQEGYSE
# From the text: vesicles harvested from the electric organ of Torpedo Californica.
# ^b Data obtained from Bahr and Parsons (1986).
# IC50 values are quoted ±1 standard deviation.
# ^d Obtained from Efange et al. (1991).
# [4] = .30 umol/Kg (so in the source) ip
# [5] = .60 umol/Kg (so in the source) ip
structure (smiles),measurement,setting,value
OC(Cc1ccc(Br)cc1)CN1CCC(c2ccccc2)CC1 (racemic) [(dl)-4c],increase in potency,vesamicol receptor [1]; 4c relative to 4a,59 times
"O[C@H]1CNCC[C@@H]1N1CCC(c2ccccc2)CC1 (relative stereo) [Compound 5, 3-Hydroxy-4-(4-phenylpiperidinyl)piperidine]",Pharmacological activity in mice,[2]; [4],NR
O[C@H]1CCNC[C@@H]1N1CCC(c2ccccc2)CC1 (relative stereo) [Compound 6],Pharmacological activity in mice,[2]; [4],NR
"O=C(c1ccccc1)N1CC[C@H](N2CCC(c3ccccc3)CC2)[C@@H](O)C1 (relative stereo) [Compound 9a, 1-Benzoyl-3-hydroxy-4-(4-phenylpiperidinyl)piperidine]",Pharmacological activity in mice,[2]; [5],LD
"O=C(c1ccccc1)N1CC[C@H](O)[C@@H](N2CCC(c3ccccc3)CC2)C1 (relative stereo) [Compound 10a, 1-Benzoyl-4-hydroxy-3-(4-phenylpiperidinyl)piperidine]",Pharmacological activity in mice,[2]; [4],LD
"O=C(c1ccccc1I)N1CC[C@H](O)[C@@H](N2CCC(c3ccccc3)CC2)C1 (relative stereo) [Compound 10b, 4-Hydroxy-1-(2-iodobenzoyl)-3-(4-phenylpiperidinyl)piperidine]",Pharmacological activity in mice,[2]; 2.5 umol/Kg ip,NR
same,Pharmacological activity in mice,[2]; 20 umol/Kg ip,+
O[C@H]1CN(Cc2ccccc2)CC[C@@H]1N1CCC(c2ccccc2)CC1 (relative stereo) [Compound 11a],Pharmacological activity in mice,[2]; 10 umol/Kg ip,NR
same,Pharmacological activity in mice,[2]; 20 umol/Kg ip,+
O[C@H]1CN(Cc2ccccc2Br)CC[C@@H]1N1CCC(c2ccccc2)CC1 (relative stereo) [Compound 11b],Pharmacological activity in mice,[2]; 5.0 umol/Kg ip,NR
same,Pharmacological activity in mice,[2]; 10 umol/Kg ip,+
same,in vitro potency (in words),vesamicol receptor [3],slight but noticeable increase in activity
O[C@H]1CN(Cc2cccc(Br)c2)CC[C@@H]1N1CCC(c2ccccc2)CC1 (relative stereo) [Compound 11c],Pharmacological activity in mice,[2]; 10 umol/Kg ip,NR
same,Pharmacological activity in mice,[2]; 20 umol/Kg ip,NR
same,Pharmacological activity in mice,[2]; [5],NR
same,hind leg paralysis in mice,"[2]; footnote c, .60 umol/Kg (so in the source) ip",Hind legs remained visibly paralyzed
same,duration of visible hind leg paralysis,"[2]; postinjection, footnote c, .60 umol/Kg (so in the source) ip",at least 15 min
O[C@H]1CN(Cc2ccc(Br)cc2)CC[C@@H]1N1CCC(c2ccccc2)CC1 (relative stereo) [Compound 11d],Pharmacological activity in mice,[2]; 10 umol/Kg ip,NR
O[C@H]1CCN(Cc2ccccc2)C[C@@H]1N1CCC(c2ccccc2)CC1 (relative stereo) [Compound 12a],Pharmacological activity in mice,[2]; 10 umol/Kg ip,LD
same,in vitro potency (in words),vesamicol receptor [3],increased potency
O[C@H]1CCN(Cc2ccc(F)cc2)C[C@@H]1N1CCC(c2ccccc2)CC1 (relative stereo) [Compound 12d],Pharmacological activity in mice,[2]; 10 umol/Kg ip,LD
same,in vitro potency (in words),vesamicol receptor [3],enhances potency
O[C@H]1CCN(Cc2ccccc2Br)C[C@@H]1N1CCC(c2ccccc2)CC1 (relative stereo) [Compound 12e],Pharmacological activity in mice,[2]; 10 umol/Kg ip,LD
O[C@H]1CCN(Cc2cccc(Br)c2)C[C@@H]1N1CCC(c2ccccc2)CC1 (relative stereo) [Compound 12f],Pharmacological activity in mice,[2]; 5.0 umol/Kg ip,NR
same,Pharmacological activity in mice,[2]; 10 umol/Kg ip,LD
"O[C@H]1CCN(Cc2ccc(Br)cc2)C[C@@H]1N1CCC(c2ccccc2)CC1 (relative stereo) [Compound 12g, 1-(4-Bromobenzyl)-4-hydroxy-3-(4-phenylpiperidinyl)piperidine]",Pharmacological activity in mice,[2]; 10 umol/Kg ip,+
same,Pharmacological activity in mice,[2]; 20 umol/Kg ip,LD
O[C@H]1CCN(Cc2cccc(I)c2)C[C@@H]1N1CCC(c2ccccc2)CC1 (relative stereo) [Compound 12h],Pharmacological activity in mice,[2]; 1.3 umol/Kg ip,NR
same,Pharmacological activity in mice,[2]; 5.0 umol/Kg ip,LD
"O=[N+]([O-])c1ccc(N2CC[C@H](O)[C@@H](N3CCC(c4ccccc4)CC3)C2)cc1 (relative stereo) [Compound 12l, 4-Hydroxy-1-(4-nitrophenyl)-3-(4-phenylpiperidinyl)piperidine]",Pharmacological activity in mice,[2]; .15 umol/Kg (so in the source) ip,NR
O=C(c1ccccc1)N1CC[C@H](O)[C@@H](N2CCC(c3ccccc3)CC2)C1 [(+)-10a],anticholinergic effects in mice,[2]; 2.5 umol/Kg,elicited anticholinergic effects
same,Pharmacological activity in mice,[2]; 2.5 umol/Kg ip,+
same,Pharmacological activity in mice,[2]; 5.0 umol/Kg ip,LD
same,Pharmacological activity in mice,[2]; [4],LD
O=C(c1ccccc1)N1CC[C@@H](O)[C@H](N2CCC(c3ccccc3)CC2)C1 [(-)-10a],Pharmacological activity in mice,[2]; 5.0 umol/Kg ip,+
same,IC50,"vesamicol receptor [3]; inhibition of [^3 H]vesamicol binding, hydrochlorides, ±1 standard deviation",100 ± 30 nM
CC(C)(C)C1CC[C@@H](O)[C@H](N2CCC(c3ccccc3)CC2)C1 (stereo partly shown) [Compound 3],vesamicol receptor affinity (in words),vesamicol receptor [1]; earlier studies,potent ligands
